Experimental data: US8034373B2, “Methods and compositions for reducing oxidative stress in an animal” (Nestec S. A., priority 2004, dated 2011)
Marks after values point to notes of the source that are not given here.

What was measured:
[1] = in words; cited from earlier work
[2] = reported; in words; cited from earlier work
[3] = cited from earlier work
[4] = system: natural killer (NK) cells; test: NK cell cytotoxicity of cells from animals fed astaxanthin; type: in vivo, dog; conditions: animals fed a diet containing astaxanthin vs control animals
Description: (§1) To assess the effect of astaxanthin supplementation on immune function, dogs may be fed a diet containing astaxanthin and/or Vitamin E for 16 weeks. The amount of astaxanthin used may be 0, 1, 5, 10, 20, and 40 mg per animal per day. Various assays may be performed to assess immune function.
In another assay, natural killer (NK) cell cytotoxicity is assessed for NK cells isolated from animals that are fed a diet including astaxanthin supplementation.

[5] = Delayed-type hypersensitivity skin reactions; type: in vivo, dog; conditions: animals fed a diet containing astaxanthin vs control animals
Description: as §1
Delayed-type hypersensitivity may also be assessed in animals given a diet supplemented with astaxanthin. In these assays, control animals and animals fed a diet containing astaxanthin are given cutaneous injections of saline, a mitogen or a vaccine of distemper virus. The animals are then assessed to measure the skin reactions to mitogen, virus and control. In animals fed a diet containing astaxanthin, the skin reactions are more robust for virus and mitogen than that found in control animals.

[6] = Antibody titers against an antigen; type: in vivo, dog; conditions: animals fed a diet containing astaxanthin vs control animals
Description: as §1
Control animals and animals fed a diet containing astaxanthin may also be assessed for the robustness of the immune response against an antigen. For example, antibody titers against an antigen may be measured for control animals and animals fed a diet containing astaxanthin.

F2-isoprostane = test: Plasma F2-isoprostane (F2I) in exercising sled dogs; type: in vivo, dog; conditions: for Plasma F2I compared to the placebo group: in words
Description: (§2) Three groups of twelve dogs (mixed breed Alaskan sled dogs (husky pointer crosses)) were fed commercially available Pro Plan® Performance chicken and rice formula dog food as a basal diet, and each group was fed either: a placebo consisting of about 0.5 g maltodextrin, about 2 mg astaxanthin, or about 400 mg Vitamin E (alpha-tocopherol). Pro Plan® dog food is available from Nestlé Purina Pet Care Company in St. Louis, Mo. The dogs were trained three times a week on an exercise wheel for a period of six weeks. On the sixth week, the dogs rested for four days and then exercised three days in a row. Blood samples were collected before exercise on day one, immediately after exercise on day three, and at 24 hours and 48 hours after exercise. Plasma from the blood samples was analyzed for concentrations of malondialdehyde, F-2 isoprostanes, Vitamin E, creatine kinase activity as well as oxygen radical absorption capacity (ORAC).
(§3) All the dogs were maintained on the same basal diet (Purina Pro Plan® Performance chicken and rice formula) for one month prior to the onset and the entire duration of the experiment. Each dog was fed as an individual to maintain an optimal body condition score of 4/10.
(§4) Thirty-six sled dogs were housed at the Nestle Purina facility in Salcha, Ak. The dogs were divided into three groups of 12 dogs so that each group was alike in age, sex and ability distribution. A treatment was randomly assigned to each group by drawing from a hat. Group “A” was assigned about 400 mg Vitamin E/day, group “B” was assigned about 2 mg Astaxanthin/day and group “C” was assigned about 500 mg maltodextrin as a placebo. The people responsible for feeding, care, and training of the dogs were blind as to the identity of treatments until the completion of the study. Dogs were treated for six weeks before the onset of testing. They were also trained lightly for two sessions per week during this time period. Training sessions consisted of walking at 14 kilometers per hour for 2 hours in a 40-foot diameter circle tethered to a dog-walking wheel.
(§5) The testing took place over a six day period. On day one, pre-exercise blood samples were drawn from all the dogs. On day two, the dogs ran twelve km while pulling an all terrain vehicle (ATV) weighing 500 pounds. On day three, the dogs walked 16 miles on the dog wheel. On day four, the dogs again pulled the ATV for a distance of 12 kilometers. Immediately after exercise on day four, blood samples were drawn. Additional blood samples were drawn again at 24 hours and 48 hours after exercise. This sampling schedule was designed to examine changes in the parameters measured during exercise and during recovery. Samples were obtained by jugular venipuncture and collected into evacuated glass tubes containing sodium EDTA as an anticoagulant. Once collected they were kept on ice for not more than 10 minutes before they were centrifuged at 10,000 revolutions per minute (RPM) in 4° C. for a period of 10 minutes. The plasma was transferred into freezer vials where the dead space was replaced with gaseous nitrogen to decrease further oxidation during storage. The vials were then capped and immediately quenched in liquid nitrogen. The vials were recovered from liquid nitrogen and stored at −70° C. until analyzed. Each plasma sample was analyzed for malondialdehyde concentration using a standard HPLC, F2-isoprostane concentration utilizing a mass spectrometer and standard ELISA, Vitamin E concentration utilizing a standard HPLC, and Oxidative Radical Absorbance Capacity (ORAC test kit, Oxford Co.
(§6) F2 isoprostane and CK data was evaluated using a two way ANOVA for repeated measures. Post hoc comparisons were made using a student's t test corrected for repeated measures by the Bonneferroni method. Statistical significance was set at p<0.05. The other data was also evaluated using ANOVA. The abbreviation “se” used with respect to the data in the tables below refers to standard error.

[7] = system: canine lens epithelial cells; test: UV-stressed canine lens epithelial cells supplemented with astaxanthin; type: cell-based
Excerpt: An in vitro experiment may be performed using canine lens epithelial cells supplemented with astaxanthin at physiological levels.

osteoarthritis = test: Osteoarthritis diet study: plasma and synovial fluid markers, gait; type: in vivo, dog
Excerpt: A diet supplemented with astaxanthin may be shown to reduce inflammation and associated pain in osteoarthritis. […] At 12 weeks of treatment, plasma and synovial fluid samples are taken from each animal and assayed for total antioxidant activity, and levels of malionaldehyde, prostaglandin, isoprostanes, MMPs and TIMPs. Additionally, the gait of the dogs may be assessed using standard force plate analyses.

[8] = Plasma Vitamin E in exercising sled dogs
Description: as §2, §3, §4, §5, §6

Creatine Kinase = test: Plasma creatine kinase (CK) in exercising sled dogs; type: in vivo, dog
Description: as §2, §3, §4
as §5, with “The plasma was transferred into freezer vials where the dead space was replaced with gaseous nitrogen to decrease further oxidation during storage. The vials were then capped and immediately quenched in liquid nitrogen.” left out
F2 isoprostane and CK data was evaluated using a two way ANOVA for repeated measures. […] The other data was also evaluated using ANOVA. […]

total ORAC = test: Plasma total Oxidative Radical Absorptive Capacity (ORAC) in exercising sled dogs; type: in vivo, dog; conditions: for ORAC improvement by supplementation: any of the time periods measured, in words
Description: as §2, §3, §4, §5, §6

malondialdehyde = test: Plasma malondialdehyde (MDA) in exercising sled dogs; type: in vivo, dog
Description: as §2, §3, §4, §5, §6

cataract formation = test: In vivo cataract formation study, slit-lamp test; design: species or system dog; conditions: dogs, e.g. two year study; astaxanthin optionally with Vitamin E, lutein, zeaxanthin, zinc
Excerpt: In a model study, 40 dogs could be chosen and randomly allocated to either the control group or to a treatment group receiving AAFCO recommended levels of antioxidants. The treatment group would receive astaxanthin and may also receive one or more of Vitamin E, lutein, zeaxanthin and zinc.

[9] = system: peripheral blood mononuclear cells (PBMCs); test: In vitro lymphoproliferation of stimulated PBMC; type: cell-based, dog; conditions: astaxanthin added directly to the media during stimulation
[10] = Pre-ex, sled dogs, about 2 mg astaxanthin/day or about 400 mg Vitamin E/day for six weeks

## CC1=C(/C=C/C(C)=C/C=C/C(C)=C/C=C/C=C(C)/C=C/C=C(C)/C=C/C2=C(C)C(=O)[C@@H](O)CC2(C)C)C(C)(C)C[C@H](O)C1=O [ATX, astaxanthin]
[1]
  solubility (lipid / water compartments of the cell): soluble in both lipid and water compartments of the cell
[2]
  potency in preventing lipid peroxidation and scavenging free radicals: more potent than Vitamin E or Vitamin C
[3]
  in vitro oxygen radical absorptive capacity relative to Vitamin E: 4 times
[4]
  NK cytotoxicity: significantly increased
[5]
  skin reactions to virus and mitogen (delayed-type hypersensitivity): more robust
[6]
  antibody titers against an antigen: higher antibody titers
F2-isoprostane; 24 hour post, same treatment
  Plasma F2 Isoprostane concentration (mean): 90
F2-isoprostane; 48 hour post, same treatment
  Plasma F2 Isoprostane concentration (mean): 66
F2-isoprostane; Post-ex, same treatment
  Plasma F2 Isoprostane concentration (mean): 52
F2-isoprostane
  Plasma F2I compared to the placebo group: lower F2I values immediately post-exercise and at 24 hours post-exercise
[7]; canine lens epithelia stressed with UV light, astaxanthin at physiological levels
  free radical formation and lipid peroxidation products: significantly reduce
[7]; canine lens epithelial cells stressed with UV light
  cell death: significantly less cell death
osteoarthritis; 12 weeks, compared to controls
  gait (force plate analyses): significant improvement in gait
osteoarthritis; plasma and synovial fluid, 12 weeks, 1, 5, 10, 20, or 40 mg per animal per day
  isoprostanes, total antioxidant activity and MMPs: decrease
[8]; dog, in vivo
  Plasma Vitamin E concentration compared between treatment groups: no significant difference
Creatine Kinase; all time periods but 24 hours post-exercise, in words
  Plasma CK compared to the Vitamin E group: lower CK values than the Vitamin E group
Total ORAC; 24 hour post, same treatment
  Plasma total ORAC (mean): 5700
Total ORAC; 48 hour post, same treatment
  Plasma total ORAC (mean): 4800
Total ORAC
  ORAC improvement by supplementation: not improved
malondialdehyde; 24 hour post, same treatment
  Plasma MDA (mean): 0.95
malondialdehyde; 24 hours post exercise, in words
  Plasma MDA compared between treatment groups: lower than either the placebo value or the Vitamin E value
malondialdehyde; Pre to 48 hour Post
  Change in Plasma MDA from Baseline: −0.004
Cataract formation
  cataract formation and severity (slit-lamp test): control group has significantly more cataract formation
[9]
  proliferation of PBMC: increases proliferation of cells significantly more

## Cc1c(C)c2c(c(C)c1O)CC[C@@](C)(CCC[C@H](C)CCC[C@H](C)CCCC(C)C)O2 [Vitamin E, alpha-tocopherol]
[1]
  solubility (lipid / water compartments of the cell): lipid soluble only
F2-isoprostane; 24 hour post, same treatment
  Plasma F2 Isoprostane concentration (mean): 130
F2-isoprostane; 48 hour post, same treatment
  Plasma F2 Isoprostane concentration (mean): 78
F2-isoprostane; Post-ex, same treatment
  Plasma F2 Isoprostane concentration (mean): 223
F2-isoprostane; [10]
  Plasma F2 Isoprostane concentration (mean): 144
F2-isoprostane
  Plasma F2I compared to the placebo group: not different from the placebo value except at the 24 hour post-exercise time period where it was lower
[8]; 24 hour post, same treatment
  Plasma Vitamin E (mean): 4720
[8]; 48 hour post, same treatment
  Plasma Vitamin E (mean): 4520
[8]; Post-ex, same treatment
  Plasma Vitamin E (mean): 3540
[8]; [10]
  Plasma Vitamin E (mean): 3370
[8]; all time periods, in words
  Plasma Vitamin E concentration compared between treatment groups: greatest
Creatine Kinase; 24 hour post, same treatment
  Plasma Creatine Kinase (mean): 184
Creatine Kinase; 48 hour post, same treatment
  Plasma Creatine Kinase (mean): 204
Creatine Kinase; Post-ex, same treatment
  Plasma Creatine Kinase (mean): 208
Creatine Kinase; [10]
  Plasma Creatine Kinase (mean): 139
Total ORAC; 24 hour post, same treatment
  Plasma total ORAC (mean): 7590
Total ORAC; 48 hour post, same treatment
  Plasma total ORAC (mean): 4840
Total ORAC; Post-ex, same treatment
  Plasma total ORAC (mean): 5850
Total ORAC; [10]
  Plasma total ORAC (mean): 7480
Total ORAC
  ORAC improvement by supplementation: not improved
malondialdehyde; 24 hour post, same treatment
  Plasma MDA (mean): 1.44
malondialdehyde; 48 hour post, same treatment
  Plasma MDA (mean): 1.44
malondialdehyde; Post-ex, same treatment
  Plasma MDA (mean): 1.17
malondialdehyde; Pre to 24 hour post
  Change in Plasma MDA from Baseline: −0.071
malondialdehyde; Pre to 48 hour Post
  Change in Plasma MDA from Baseline: −0.069
malondialdehyde; Pre to Post
  Change in Plasma MDA from Baseline: −0.336*
malondialdehyde; [10]
  Plasma MDA (mean): 1.51
